Literature values as cited in paper PMC11785675, “Phase Ib study of the oral PI3Kδ inhibitor linperlisib in patients with advanced solid tumors” (International Journal of Clinical Oncology, 2024).

How the values were obtained:
patients [1] = system: patients; parameters: method as in PMID 27672108; conditions: cited from earlier work
advanced solid tumors [2] = system: advanced solid tumors; parameters: method as in PMID 27672108; conditions: 48 patients with advanced solid tumors, cited from earlier work
patients [3] = system: patients; parameters: method as in PMID 31619463; conditions: cited from earlier work
[4] = system: advanced or refractory solid tumors; parameters: method as in PMID 27915408; conditions: 10 Japanese patients, cited from earlier work
[5] = comparison drugs; no reference given; cited from earlier work
breast cancer = system: breast cancer; parameters: method as in PMID 24919154, PMID 33093155; conditions: cited from earlier work
HCC cells = system: HCC cells; parameters: method as in PMID 24919154, PMID 33093155; conditions: cited from earlier work
patients [6] = conditions: 150 mg twice daily; 12 patients; cited from earlier work
[7] = system: thymic epithelial tumors cells carrying mutant PI3K subunits; parameters: method as in PMID 27117832; conditions: in vitro; cited from earlier work
advanced solid tumors [8] = system: advanced solid tumors; parameters: method as in PMID 35288468; conditions: parsaclisib monotherapy; five patients; cited from earlier work

COc1c(OCCCN2CCOCC2)ccc2c1N=C(NC(=O)c1cnc(N)nc1)N1CCN=C21 [copanlisib]
Patients with AEs possibly related to copanlisib (patients [1]; 49 patients): 86%
Drug-related grade 3 AE hyperglycemia (patients [1]): 30%
Drug-related grade 3 AE hypertension (patients [1]): 14%
Drug-related grade 3 AE rash (patients [1]): 7%
TRAE hyperglycemia, all grades (patients [1]): 63%
TRAE hypertension, all grades (patients [1]): 21%
TRAE nausea, all grades (patients [1]): 37%
Patients achieving stable disease (advanced solid tumors [2]): 15 patients
Patients achieving CR (advanced solid tumors [2]; endometrial carcinoma with PIK3CA and PTEN mutations): one
Patients with PR (advanced solid tumors [2]; metastatic breast cancer): two
TEAE fatigue, all grade (patients [3]): 46.0%
TEAE hyperglycemia, grade 3 (patients [3]): 22.2%
TEAE hyperglycemia, grade 4 (patients [3]): 1.6%
TEAE hypertension, all grade (patients [3]): 41.3%
TEAE hypertension, grade 3 (patients [3]): 30.2%
TEAE hypertension, grade 4 (patients [3]): 0
TEAE hypophosphatemia, grade 3 (patients [3]): 11.1%
TEAE hypophosphatemia, grade 4 (patients [3]): 0
TEAE lymphocyte count decreased, grade 3 (patients [3]): 7.9%
TEAE lymphocyte count decreased, grade 4 (patients [3]): 4.8%
3-month PFS rate ([4]; 95% CI 1–40): 12%
Median PFS ([4]; 95% CI 21–82): 52 days
CR or PR [4]: no patients achieved a CR or PR
DCR [4]: 40.0%

C[C@H](Nc1ncnc2[nH]cnc12)c1cc2cccc(Cl)c2c(=O)n1-c1ccccc1 [duvelisib, reference compound]
Route of excretion [5]: predominantly excreted via the intestines

Fc1ccc2[nH]ccc2c1-c1nc(N2CCOCC2)c2sc(CN3CCN(CC4CC4)CC3)cc2n1 [PI-3065]
Growth and metastasis of breast cancer (breast cancer): significantly inhibit growth and metastasis of breast cancer
Apoptosis of HCC cells (HCC cells): directly induce apoptosis of HCC cells

CC[C@H](Nc1ncnc2[nH]cnc12)c1nc2cccc(F)c2c(=O)n1-c1ccccc1 [idelalisib]
Grade ≥ 3 TEAE increased ALT (patients [6]): 25%
Grade ≥ 3 TEAE increased AST (patients [6]): 41.7%
Grade ≥ 3 TEAE maculopapular rash (patients [6]): 25%
TEAE increased ALT (patients [6]): 33.3%
TEAE increased AST (patients [6]): 41.7%
TEAE maculopapular rash (patients [6]): 25%
TEAE pyrexia (patients [6]): 50%

CS(=O)(=O)N1CCN(Cc2cc3nc(-c4cccc5[nH]ncc45)nc(N4CCOCC4)c3s2)CC1 [GDC-0941]
Antitumor activity [7]: in vitro antitumor activity

CCOc1c([C@H](C)n2nc(C)c3c(N)ncnc32)cc(Cl)c(F)c1[C@@H]1CNC(=O)C1 [parsaclisib]
CR or PR (advanced solid tumors [8]): none achieved a CR or PR
